Measured values from ChEMBL document CHEMBL5532638, “Current development of 1,2,3-triazole derived potential antimalarial scaffolds: Structure- activity relationship (SAR) and bioactive compounds” (Eur J Med Chem, 2023).
Converted amounts (≈) assume the structure as drawn. Values belong to the molecule of their own block, whether it stands above or below them.

How the values were obtained:
Plasmodium falciparum [1] = experiment: Antiplasmodial activity against CQ-resistant Plasmodium falciparum FCR-3/Gambia subline F-86 infected in erythrocytes assessed as parasite growth inhibition incubated for 24 hrs by [3H]-hypoxanthine incorporation assay; format: functional, organism-based; details: FCR-3/Gambia subline F-86, Erythrocyte
Plasmodium falciparum [2] = experiment: Antiplasmodial activity against CQ-resistant Plasmodium falciparum 2/K-1 infected in human O+ red blood cells assessed as parasite growth inhibition incubated for 72 hrs by Malstat assay; format: functional, organism-based, Red blood cell; details: 2/K-1, Erythrocyte
Plasmodium falciparum [3] = experiment: Antiplasmodial activity against CQ-sensitive Plasmodium falciparum F32 Tanzania assessed as parasite growth inhibition incubated for 48 hrs; format: functional, organism-based, RBC; details: Erythrocyte
Plasmodium falciparum [4] = experiment: Antiplasmodial activity against CQ-sensitive Plasmodium falciparum 3D7 at trophozoite stage infected in human O+ RBCs assessed as parasite growth inhibition by SYBR Green I staining based analysis; format: functional, organism-based, RBC; details: 3D7, Erythrocyte
Plasmodium falciparum [5] = experiment: Antiplasmodial activity against CQ-resistant Plasmodium falciparum RKL-9 at trophozoite stage infected in human O+ RBCs assessed as parasite growth inhibition by SYBR Green I staining based analysis; format: functional, organism-based, RBC; details: RKL-9, Erythrocyte
Plasmodium falciparum [6] = experiment: Antiplasmodial activity against CQ-resistant Plasmodium falciparum K1 assessed as parasite growth inhibition; format: functional, organism-based
[7] = Cytotoxicity against African green monkey Vero cells; format: toxicity, cell-based; details: chlorocebus sabaeus
[8] = Cytotoxicity against human Huh-7 cells incubated for 48 hrs by MTT assay; format: toxicity, cell-based
Plasmodium falciparum [9] = experiment: Antiplasmodial activity against Plasmodium falciparum 3D7 assessed as parasite growth inhibition incubated for 24 hrs by [3H]-hypoxanthine incorporation assay; format: functional, organism-based
Falcipain 2 = biological target: T1, Falcipain 2 (Plasmodium falciparum, UniProt Q9N6S8); experiment: Inhibition of recombinant Plasmodium falciparum FP2
T1 sequence (Q9N6S8 whole entry): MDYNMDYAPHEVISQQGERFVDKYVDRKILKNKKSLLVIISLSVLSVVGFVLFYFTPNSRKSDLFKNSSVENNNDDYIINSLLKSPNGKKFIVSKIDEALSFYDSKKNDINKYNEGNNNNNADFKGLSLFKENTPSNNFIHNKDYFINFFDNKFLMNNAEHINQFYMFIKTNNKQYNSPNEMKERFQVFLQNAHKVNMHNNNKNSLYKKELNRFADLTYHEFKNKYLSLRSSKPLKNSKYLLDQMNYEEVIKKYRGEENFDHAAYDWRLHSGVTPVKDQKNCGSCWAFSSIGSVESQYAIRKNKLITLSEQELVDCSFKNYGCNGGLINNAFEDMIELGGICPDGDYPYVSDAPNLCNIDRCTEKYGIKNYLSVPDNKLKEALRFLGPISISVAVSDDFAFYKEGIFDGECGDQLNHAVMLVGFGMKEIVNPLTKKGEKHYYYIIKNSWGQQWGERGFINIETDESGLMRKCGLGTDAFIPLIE

Plasmodium falciparum [10] = experiment: Antiplasmodial activity against Plasmodium falciparum 3D7 assessed as parasite growth inhibition; format: functional, organism-based
[11] = Selectivity index, ratio of CC50 for human erythrocytes to IC50 for Plasmodium falciparum Dd2; format: toxicity; details: read-out: Ratio CC50/IC50
Plasmodium falciparum [12] = experiment: Antiplasmodial activity against CQ-resistant Plasmodium falciparum W2 infected in red blood cells assessed as parasite growth inhibition incubated for 72 hrs by SYBR Green I staining based analysis; format: functional, organism-based, Red blood cell; details: W2, Erythrocyte
Plasmodium falciparum [13] = experiment: Antiplasmodial activity against CQ-sensitive Plasmodium falciparum 3D7 infected in red blood cells assessed as parasite growth inhibition incubated for 72 hrs by SYBR Green I staining based analysis; format: functional, organism-based, Red blood cell; details: 3D7, Erythrocyte
Plasmepsin II = Plasmepsin II (Plasmodium falciparum, UniProt P46925); experiment: Inhibition of Plasmodium falciparum Plm-II using DABCYL-Glu-Arg-Nle-Phe-Leu-Ser-Phe-Pro-EDANS as substrate preincubated for 30 mins followed by substrate addition measured after 8 to 15 mins by FRET assay
Plasmepsin II, sequence (P46925 whole entry): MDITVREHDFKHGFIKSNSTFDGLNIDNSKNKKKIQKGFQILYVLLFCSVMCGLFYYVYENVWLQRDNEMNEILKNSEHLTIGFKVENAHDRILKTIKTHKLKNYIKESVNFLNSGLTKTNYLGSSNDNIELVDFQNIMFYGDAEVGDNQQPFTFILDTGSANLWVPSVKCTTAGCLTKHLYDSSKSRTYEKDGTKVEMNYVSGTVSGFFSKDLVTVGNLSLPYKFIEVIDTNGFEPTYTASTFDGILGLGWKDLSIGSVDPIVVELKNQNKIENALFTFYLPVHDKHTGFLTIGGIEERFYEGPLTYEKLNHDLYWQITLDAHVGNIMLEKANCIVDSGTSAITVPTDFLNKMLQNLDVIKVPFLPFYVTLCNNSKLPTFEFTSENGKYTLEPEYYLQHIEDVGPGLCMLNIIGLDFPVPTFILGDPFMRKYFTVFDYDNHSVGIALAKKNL

Plasmodium falciparum [14] = experiment: Antiplasmodial activity against CQ-sensitive Plasmodium falciparum 3D7 assessed as parasite growth inhibition; format: functional, organism-based

Structure (SMILES): C[C@@H]1[C@@H](n2cc(-c3cccc(Cl)c3)nn2)O[C@@H]2O[C@]3(C)CC[C@H]4[C@H](C)CC[C@@H]1[C@@]24OO3
- IC50 (Plasmodium falciparum [1]): 0.0025 µM

Structure (SMILES): C[C@H]1[C@H](n2nncc2-c2cccc(Cl)c2)O[C@@H]2O[C@]3(C)CC[C@H]4[C@H](C)CC[C@@H]1[C@@]24OO3
- IC50 (Plasmodium falciparum [1]): 0.0042 µM

Structure (SMILES): CCc1nnc2ccc(S(=O)(=O)N(Cc3cccc(F)c3)c3ccc(OC)cc3)cn12
- IC50 (Plasmodium falciparum [2]): 4.98 µM

Structure (SMILES): O=C1C=C(OCc2cn(-c3ccccc3)nn2)C(=O)c2ccccc21
- IC50 (Plasmodium falciparum [3]): 1.2 µM

Structure (SMILES): COc1ccc(-n2cc(COC3=CC(=O)c4ccccc4C3=O)nn2)cc1F
- IC50 (Plasmodium falciparum [3]): 0.8 µM

Structure (SMILES): COc1ccccc1C(=O)/C=C/c1cn(Cc2cn(-c3ccnc4cc(Cl)ccc34)nn2)c2ccccc12
- IC50 (Plasmodium falciparum [4]): 2.4 µM
- IC50 (Plasmodium falciparum [5]): 3.5 µM

Structure (SMILES): Cc1ccccc1C(=O)/C=C/c1cn(Cc2cn(-c3ccnc4cc(Cl)ccc34)nn2)c2ccccc12
- IC50 (Plasmodium falciparum [4]): 1.8 µM
- IC50 (Plasmodium falciparum [5]): 2.7 µM

Structure (SMILES): COc1cc(/C=C/C(=O)c2ccc(Cl)cc2)ccc1OCc1cn(-c2ccnc3cc(Cl)ccc23)nn1
- IC50 (Plasmodium falciparum [6]): 3.14 µM
- CC50 [7]: 46.2 µM

Structure (SMILES): Cc1ccc(OCc2cn(-c3ccc(S(N)(=O)=O)cc3)nn2)cc1
- CC50 at 48 h [8]: 7.5 µg/mL (≈ 21.8 µM)
- IC50 (Plasmodium falciparum [9]): 6.2 µg/mL (≈ 18 µM)

- IC50 (Falcipain 2): 16.2 µM
Structure (SMILES): O=[N+]([O-])c1ccc(-n2cc(COc3cccc4nc(Cl)ccc34)nn2)cc1
- IC50 (Plasmodium falciparum [10]): 49.9 µM

Structure (SMILES): O=[N+]([O-])c1ccc(Cn2cc(CO)nn2)cc1
- selectivity ratio [11]: 161

Structure (SMILES): OB1OCc2cc(OCc3cn(CCCNc4ccnc5cc(Cl)ccc45)nn3)ccc21
- IC50 (Plasmodium falciparum [12]): 3.91 µM
- IC50 (Plasmodium falciparum [13]): 4.13 µM

Structure (SMILES): C[C@H]1[C@@H](n2cc(-c3cccc(Cl)c3)nn2)O[C@@H]2O[C@]3(C)CC[C@H]4[C@H](C)CC[C@@H]1[C@@]24OO3
- IC50 (Plasmodium falciparum [1]): 0.0037 µM

- IC50 (Plasmepsin II): 0.6 µM
Structure (SMILES): CCCCCc1ccc(-n2nnc(CCN(CC)CC)c2Cc2ccc(-c3ccc(OC)cc3)cc2)cc1

Structure (SMILES): O=S(=O)(c1ccc(-n2cc(COc3ccc(I)cc3)nn2)cc1)N1CCN(c2ccccc2)CC1
- IC50 (Plasmodium falciparum [9]): 12.9 µg/mL (≈ 21.4 µM)

- IC50 (Plasmepsin II): 0.6 µM
Structure (SMILES): CCCCCc1ccc(-n2nnc(CCN3CCCC3)c2Cc2ccc(-c3ccc(OC)cc3)cc2)cc1

Structure (SMILES): C[C@H](Cn1cc(C(C)(C)O)nn1)C1CCC2[C@@H](O)CCC[C@]12C (some centres not stated)
- IC50 (Plasmodium falciparum [14]): 0.02 µM

Structure (SMILES): ClCCCCn1cc(-c2ccccc2)nn1
- IC50 (Plasmodium falciparum [14]): 3.29 µM

Structure (SMILES): O=c1n(Cc2cccc(Cl)c2)nc2c(S(=O)(=O)N3CCCCC3)cccn12
- IC50 (Plasmodium falciparum [2]): 2.24 µM

Structure (SMILES): Cc1cc(C)nc(NS(=O)(=O)c2ccc(-n3cc(COc4ccc(Cl)cc4Cl)nn3)cc2)n1
- IC50 (Plasmodium falciparum [9]): 16.7 µg/mL (≈ 33 µM)

- IC50 (Plasmepsin II): 1.8 µM
Structure (SMILES): CCCCCc1ccc(-n2nnc(CCN3CCN(C)CC3)c2Cc2ccc(-c3ccc(OC)cc3)cc2)cc1
